Measured values from US20230106836A1, “METHOD OF USING BIOSURFACTANT-PRODUCING BACTERIA AGAINST FUNGAL AND BACTERIAL PATHOGENS” (THE ROYAL INSTITUTION FOR THE ADVANCEMENT OF …, priority 2020, published 2023).

Columns and labels:
[1] = system: E. coli; assay: Diffusion plate assay of TLC fractions, organic acids and bleach; format: cell-based, Escherichia coli; conditions: organic acids 1%, bleach 1.3%
Experimental: (§1) Bacterial cells were removed by centrifugation (5000×g at 4° C.) and the cell—free supernatant (CFS) was acidified to pH 2.0 with 2N HCL at 4° C. for 16 h resulting in a precipitate that was collected by centrifugation (5000×g for 10 min at 4° C.). The acid precipitate fraction (APF) was dissolved in water (100 mg/mL) and adjusted to pH 7.0 using 1N NaOH. The CFS sample and clean BHM culture medium were concentrated by freeze-drying for 48 h. All samples were stored at −80° C. until further use.
(§2) Separation of CFS and APF fractions was performed by thin layer chromatography (TLC). Acid-cleaned glass plates (20×20 cm) were coated with a thin layer of silica emulsion (160 grams of silica with 15% (w/v) calcium sulphate and with fluorescent indicator GF254 dissolved in 500 mL of double distilled water) purchased from Sigma-Aldrich and dried for 16-18 h at 22° C. Activation of silica plates was done by heating the TLC plates at 120° C. for 30 min prior to use. An amount of 100 mg of each of CFS and APF were dissolved in 400 μL of chloroform: methanol (2:1, v/v) and separated on activated TLC plates with chloroform: methanol: water (70:26:4) as the developing solvent system. Plates were observed under UV (λ=254 nm) and the retention factor (Rf) values were calculated as distance travelled by the samples over the distance travelled by solvent. Only APF separated fractions were used for bioactivity assays. Bands corresponding to the desired Rf values were scraped and collected for extraction. Bands of the same Rf value from different plates were pooled together and extracted twice with chloroform: methanol (v/v/; 2:1). The collected fractions were vacuum-concentrated for 4-6 h at −60° C. using a Speed Vac™ v78100 (Labconco Corp, Kansas City Mo., USA), re-dissolved in 50 μL of methanol and tested against target bacteria and fungi, as well as for biosurfactant activity. Methanol (50 μL) was used as a negative control.
(§3) The biosurfactant activity of the fractions was tested using the oil-spreading and the drop collapse methods, as described above. Fractions were also tested for their antimicrobial activities against a number of bacteria and fungi using the Burkholder diffusion plate method as noted above. Briefly, 10 μL of the dissolved fractions were spotted in the middle of the plates. Positive controls consisted of 10 μL of bleach and of each of the following organic acids: 1% (v/v) of acetic acid, formic acid, citric acid and lactic acid. […] Individual trials were performed in triplicate and the entire assay was repeated twice to confirm the findings.

[2] = system: X. campestris; assay: as above; format: cell-based; conditions: strain B07.007, Xanthomonas campestris; organic acids 1%, bleach 1.3%
Experimental: as §1, §2, §3

[3] = system: Botrytis cinerea; assay: Antimicrobial assay of TLC fractions against fungi; format: cell-based; conditions: strain F014, Botrytis cinerea; organic acids 1%, bleach 1.3%
Experimental: as §1, §2, §3

[4] = system: Rhizoctonia solani; assay: Antimicrobial assay of TLC fractions against fungi; format: cell-based; conditions: organic acids 1%, bleach 1.3%
Experimental: as §1, §2, §3

[5] = system: Salmonella enterica serovars; assay: Diffusion plate assay of TLC fractions, organic acids and bleach; format: cell-based; conditions: organic acids 1%, bleach 1.3%
Experimental: as §1
as §2, with “Only APF separated fractions were used for bioactivity assays.” left out
as §3

[6] = strain AG1-1A (ROS-2A), R. solani
[7] = strain AG3 (114), Rhizoctonia solani

Compound	Microbial activity (clearing zone), fractions, organic acids and bleach ([1]; strain E3-6, Escherichia coli)	Microbial activity (clearing zone), fractions, organic acids and bleach ([1]; strain E10-6, E. coli)	Microbial activity (clearing zone), fractions, organic acids and bleach ([1]; strain E14-6, E. coli)	Microbial activity (clearing zone), fractions, organic acids and bleach ([1]; strain E15-6, E. coli)	Microbial activity (clearing zone), fractions, organic acids and bleach [2]	Microbial activity (clearing zone), fractions, organic acids and bleach [3]	Microbial activity (clearing zone), fractions, organic acids and bleach [4, 6]	Microbial activity (clearing zone), fractions, organic acids and bleach [4, 7]	Microbial activity (clearing zone), fractions, organic acids and bleach ([5]; strain MAE14, S. enterica Typhimurium)	Microbial activity (clearing zone), fractions, organic acids and bleach ([5]; strain MAE299, S. enterica Typhimurium)	Microbial activity (clearing zone), fractions, organic acids and bleach ([5]; strain MAE775, S. enterica Typhimurium)	Microbial activity (clearing zone), fractions, organic acids and bleach ([5]; strain PARC#5, S. enterica Agona)	Microbial activity (clearing zone), fractions, organic acids and bleach ([5]; strain SCS2, S. enterica I: Rough-O: e, h: e, n)	Microbial activity (clearing zone), fractions, organic acids and bleach ([5]; strain SL1, S. enterica Newport)	Microbial activity (clearing zone), fractions, organic acids and bleach ([5]; strain SL2, S. enterica Hartford)	Microbial activity (clearing zone), fractions, organic acids and bleach ([5]; strain UMR1, Salmonella enterica Typhimurium)
O=C(O)CC(O)(CC(=O)O)C(=O)O [CA]	+ ((+) clearing zone of 3 mm)	+ ((+) clearing zone of 3 mm)	+ ((+) clearing zone of 3 mm)	+ ((+) clearing zone of 3 mm)	++ ((++) clearing zone of 4 mm)	+ ((+) clearing zone of 3 mm)	+ ((+) clearing zone of 3 mm)	+ ((+) clearing zone of 3 mm)								
O=CO [FA]	+++ (clearing zone of 5 mm (+++))	+++ (clearing zone of 5 mm (+++))	+++ (clearing zone of 5 mm (+++))	+++ (clearing zone of 5 mm (+++))	+++ (clearing zone of 5 mm (+++))	+++ (clearing zone of 5 mm (+++))	+++ (clearing zone of 5 mm (+++))	+++ (clearing zone of 5 mm (+++))								
CC(=O)O [AA]	++ ((++) clearing zone of 4 mm)	++ ((++) clearing zone of 4 mm)	++ ((++) clearing zone of 4 mm)	++ ((++) clearing zone of 4 mm)	+++ (clearing zone of 5 mm (+++))	++ ((++) clearing zone of 4 mm)	++ ((++) clearing zone of 4 mm)	++ ((++) clearing zone of 4 mm)	++ ((++) clearing zone of 4 mm)	++ ((++) clearing zone of 4 mm)	+++ (clearing zone of 5 mm (+++))	++ ((++) clearing zone of 4 mm)	++ ((++) clearing zone of 4 mm)	++ ((++) clearing zone of 4 mm)	++ ((++) clearing zone of 4 mm)	++ ((++) clearing zone of 4 mm)
CC(O)C(=O)O (stereo not shown) [LA]	+ ((+) clearing zone of 3 mm)	+ ((+) clearing zone of 3 mm)	+ ((+) clearing zone of 3 mm)	+ ((+) clearing zone of 3 mm)	++ ((++) clearing zone of 4 mm)	+ ((+) clearing zone of 3 mm)	+ ((+) clearing zone of 3 mm)	+ ((+) clearing zone of 3 mm)								
